Experimental data reported in ChEMBL document CHEMBL4270485, “Determination of Gymnemic Acid I as a Protein Biosynthesis Inhibitor Using Chemical Proteomics” (J Nat Prod, 2017).
Active and inactive are the calls of the source. No cut-off for these calls is given here.

What was measured:
[1] = Drug internalization in human HeLa cells at 1 uM by RP-HPLC-MS analysis; format: ADME, cell-based
[2] = tested on: HeLa; experiment: Inhibition of protein synthesis in human HeLa cells at 50 to 500 uM pre-incubated for 1 hr before L-[35S]-cysteine and L-[35S]-methionine addition and measured after 1 hr by Comassie staining based autoradiography; format: functional, cell-based

C/C=C(\C)C(=O)O[C@H]1[C@H](O)[C@]2(COC(C)=O)[C@@H](O)C[C@]3(C)C(=CC[C@@H]4[C@@]5(C)CC[C@H](O[C@@H]6O[C@H](C(=O)NCC)[C@@H](O)[C@H](O)[C@H]6O)[C@@](C)(CO)[C@@H]5CC[C@]43C)[C@@H]2CC1(C)C
Drug uptake [1]: 15% | inhibition [2]: inactive
